According to PubChem BioAssay (NCI):
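Growth conditions: 96-well plates. Treatment: test compound, 48 hours, 5 concentrations. Analysis: linear interpolation between bracketing concentrations; unreached endpoints set to highest concentration. Here, GI50 denotes the concentration required for 50% inhibition of growth. TGI is the concentration that stops growth completely.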

Experiments:
Assay in all cases: NCI-60 cell line screen, 48 h
786-0 renal = test system: 786-0 renal
A498 renal = test system: A498 renal
A549 NSCLC = test system: A549 NSCLC
ACHN renal = test system: ACHN renal
BT-549 breast = test system: BT-549 breast
CAKI-1 renal = test system: CAKI-1 renal
CCRF-CEM leukemia = test system: CCRF-CEM leukemia
COLO 205 colon = test system: COLO 205 colon
DU-145 prostate = test system: DU-145 prostate
EKVX NSCLC = test system: EKVX NSCLC
HCC-2998 colon = test system: HCC-2998 colon
HCT-116 colon = test system: HCT-116 colon
HCT-15 colon = test system: HCT-15 colon
HL-60(TB) leukemia = test system: HL-60(TB) leukemia
HOP-62 NSCLC = test system: HOP-62 NSCLC
HOP-92 NSCLC = test system: HOP-92 NSCLC
HS 578T breast = test system: HS 578T breast
HT29 colon = test system: HT29 colon
IGROV1 ovarian = test system: IGROV1 ovarian
K-562 leukemia = test system: K-562 leukemia
KM12 colon = test system: KM12 colon
LOX IMVI melanoma = test system: LOX IMVI melanoma
M14 melanoma = test system: M14 melanoma
MALME-3M melanoma = test system: MALME-3M melanoma
MCF7 breast = test system: MCF7 breast
MDA-MB-231 breast = test system: MDA-MB-231 breast
MDA-MB-435 = test system: MDA-MB-435
MOLT-4 leukemia = test system: MOLT-4 leukemia
NCI-H226 lung = test system: NCI-H226 lung
NCI-H23 lung = test system: NCI-H23 lung
NCI-H460 lung = test system: NCI-H460 lung
NCI-H522 lung = test system: NCI-H522 lung
NCI/ADR-RES ovarian = test system: NCI/ADR-RES ovarian
OVCAR-3 ovarian = test system: OVCAR-3 ovarian
OVCAR-4 ovarian = test system: OVCAR-4 ovarian
OVCAR-5 ovarian = test system: OVCAR-5 ovarian
OVCAR-8 ovarian = test system: OVCAR-8 ovarian
PC-3 prostate = test system: PC-3 prostate
RPMI-8226 leukemia = test system: RPMI-8226 leukemia
RXF 393 renal = test system: RXF 393 renal
SF-268 CNS = test system: SF-268 CNS
SF-295 CNS = test system: SF-295 CNS
SF-539 CNS = test system: SF-539 CNS
SK-MEL-2 melanoma = test system: SK-MEL-2 melanoma
SK-MEL-28 melanoma = test system: SK-MEL-28 melanoma
SK-MEL-5 melanoma = test system: SK-MEL-5 melanoma
SK-OV-3 ovarian = test system: SK-OV-3 ovarian
SN12C renal = test system: SN12C renal
SNB-19 CNS = test system: SNB-19 CNS
SNB-75 CNS = test system: SNB-75 CNS
SW-620 colon = test system: SW-620 colon
T-47D breast = test system: T-47D breast
TK-10 renal = test system: TK-10 renal
U251 CNS = test system: U251 CNS
UACC-257 melanoma = test system: UACC-257 melanoma
UACC-62 melanoma = test system: UACC-62 melanoma
UO-31 renal = test system: UO-31 renal

O=C1/C(=C/c2ccc([N+](=O)[O-])cc2)CN(C(=O)CCN2CCC(=NO)CC2)C/C1=C\c1ccc([N+](=O)[O-])cc1
GI50 (786-0 renal): 1060 nM
TGI (786-0 renal): 3660 nM
GI50 (A498 renal): 1750 nM
TGI (A498 renal): 3950 nM
GI50 (A549 NSCLC): 2850 nM
TGI (A549 NSCLC): 12400 nM
GI50 (ACHN renal): 893 nM
TGI (ACHN renal): 2460 nM
GI50 (BT-549 breast): 1710 nM
TGI (BT-549 breast): 4320 nM
GI50 (CAKI-1 renal): 756 nM
TGI (CAKI-1 renal): 2390 nM
GI50 (CCRF-CEM leukemia): 534 nM
TGI (CCRF-CEM leukemia): 9930 nM
GI50 (COLO 205 colon): 2330 nM
TGI (COLO 205 colon): 5930 nM
GI50 (DU-145 prostate): 1610 nM
TGI (DU-145 prostate): 4650 nM
GI50 (EKVX NSCLC): 2300 nM
TGI (EKVX NSCLC): 10100 nM
GI50 (HCC-2998 colon): 1000 nM
TGI (HCC-2998 colon): 2620 nM
GI50 (HCT-116 colon): 552 nM
TGI (HCT-116 colon): 1530 nM
GI50 (HCT-15 colon): 771 nM
TGI (HCT-15 colon): 3900 nM
GI50 (HL-60(TB) leukemia): 1850 nM
TGI (HL-60(TB) leukemia): 6880 nM
GI50 (HOP-62 NSCLC): 1910 nM
TGI (HOP-62 NSCLC): 6970 nM
GI50 (HOP-92 NSCLC): 2810 nM
TGI (HOP-92 NSCLC): 9360 nM
GI50 (HS 578T breast): 1980 nM
TGI (HS 578T breast): 9860 nM
GI50 (HT29 colon): 477 nM
TGI (HT29 colon): 1930 nM
GI50 (IGROV1 ovarian): 817 nM
TGI (IGROV1 ovarian): 2750 nM
GI50 (K-562 leukemia): 216 nM
TGI (K-562 leukemia): > 60900 nM
GI50 (KM12 colon): 448 nM
TGI (KM12 colon): 1180 nM
GI50 (LOX IMVI melanoma): 296 nM
TGI (LOX IMVI melanoma): 739 nM
GI50 (M14 melanoma): 1510 nM
TGI (M14 melanoma): 6400 nM
GI50 (MALME-3M melanoma): 2040 nM
TGI (MALME-3M melanoma): 6900 nM
GI50 (MCF7 breast): 431 nM
TGI (MCF7 breast): 2870 nM
GI50 (MDA-MB-231 breast): 869 nM
TGI (MDA-MB-231 breast): 2920 nM
GI50 (MDA-MB-435): 1000 nM
TGI (MDA-MB-435): 3450 nM
GI50 (MOLT-4 leukemia): 409 nM
TGI (MOLT-4 leukemia): > 20000 nM
GI50 (NCI-H226 lung): 2030 nM
TGI (NCI-H226 lung): 5410 nM
GI50 (NCI-H23 lung): 1530 nM
TGI (NCI-H23 lung): 4580 nM
GI50 (NCI-H460 lung): 1150 nM
TGI (NCI-H460 lung): 3950 nM
GI50 (NCI-H522 lung): 860 nM
TGI (NCI-H522 lung): 3280 nM
GI50 (NCI/ADR-RES ovarian): 1490 nM
TGI (NCI/ADR-RES ovarian): 17800 nM
GI50 (OVCAR-3 ovarian): 801 nM
TGI (OVCAR-3 ovarian): 2310 nM
GI50 (OVCAR-4 ovarian): 1310 nM
TGI (OVCAR-4 ovarian): 5360 nM
GI50 (OVCAR-5 ovarian): 1570 nM
TGI (OVCAR-5 ovarian): 3970 nM
GI50 (OVCAR-8 ovarian): 806 nM
TGI (OVCAR-8 ovarian): 5500 nM
GI50 (PC-3 prostate): 583 nM
TGI (PC-3 prostate): 2380 nM
GI50 (RPMI-8226 leukemia): 368 nM
TGI (RPMI-8226 leukemia): 1600 nM
GI50 (RXF 393 renal): 1490 nM
TGI (RXF 393 renal): 3140 nM
GI50 (SF-268 CNS): 1070 nM
TGI (SF-268 CNS): 6010 nM
GI50 (SF-295 CNS): 2090 nM
TGI (SF-295 CNS): 5390 nM
GI50 (SF-539 CNS): 969 nM
TGI (SF-539 CNS): 2910 nM
GI50 (SK-MEL-2 melanoma): 4740 nM
TGI (SK-MEL-2 melanoma): 16600 nM
GI50 (SK-MEL-28 melanoma): 1930 nM
TGI (SK-MEL-28 melanoma): 4720 nM
GI50 (SK-MEL-5 melanoma): 1990 nM
TGI (SK-MEL-5 melanoma): 4380 nM
GI50 (SK-OV-3 ovarian): 5960 nM
TGI (SK-OV-3 ovarian): 17400 nM
GI50 (SN12C renal): 677 nM
TGI (SN12C renal): 2510 nM
GI50 (SNB-19 CNS): 1080 nM
TGI (SNB-19 CNS): 5130 nM
GI50 (SNB-75 CNS): 1950 nM
TGI (SNB-75 CNS): 9050 nM
GI50 (SW-620 colon): 311 nM
TGI (SW-620 colon): 982 nM
GI50 (T-47D breast): 1840 nM
TGI (T-47D breast): 9270 nM
GI50 (TK-10 renal): 2010 nM
TGI (TK-10 renal): 6140 nM
GI50 (U251 CNS): 509 nM
TGI (U251 CNS): 2030 nM
GI50 (UACC-257 melanoma): 2430 nM
TGI (UACC-257 melanoma): 7970 nM
GI50 (UACC-62 melanoma): 866 nM
TGI (UACC-62 melanoma): 2490 nM
GI50 (UO-31 renal): 1140 nM
TGI (UO-31 renal): 2550 nM
